According to US5821363A, “Antineoplastic use and pharmaceutical compositions containing them” (priority 1996, dated 1998):
Converted amounts (≈) assume the structure as drawn.

Tests used:
tubulin = details: 20° C.; compared with taxol
[1] = system: A2780 human ovarian carcinoma; assay: cytotoxicity in A2780 human ovarian carcinoma cells; assay type: cell-based; details: A2780 human ovarian carcinoma, Table II; read-out: A2780 (IC50 μg/ml)
[2] = system: L1210 mouse leukemia carcinoma cells; assay: cytotoxicity / inhibition of cell proliferation in L1210 leukemia cells; assay type: cell-based; details: L1210 leukemia, Table I, 50% inhibition of cell proliferation vs untreated control, read-out: L1210 (IC50 μg/ml)
KB-3-1 = assay: killing of drug sensitive (non-MDR) KB-3-1 cells; assay type: cell-based; details: Homo sapiens; KB-3-1 drug sensitive cells, Table III; read-out: KB-3-1 (IC50; nM)
KB-V1 = assay: killing of multidrug resistant KB-V1 cells; assay type: cell-based

| Compound | induction of tubulin polymerization in vitro (tubulin) | IC50 [1] | IC50 [2] | IC50 (KB-3-1) | IC50 (KB-V1; Homo sapiens, KB-V1 multidrug resistant cells, Table III, read-out: KB-V1 (IC50; nM)) | Ratio: KBV-1/KB-3-1 (KB-V1; ratio of IC50 KB-V1 to IC50 KB-3-1) | average ratio (IC50 KB-V1/IC50 KB-3-1) (KB-V1; taxol and taxotere, average) |
| --- | --- | --- | --- | --- | --- | --- | --- |
| 7-deoxy-7β,8β-methano-taxol | able to induce tubulin polymerization in vitro at 20 °C in a manner very similar to taxol |  |  |  |  |  |  |
| CC(=O)O[C@@]12CO[C@@H]1C[C@H](O)[C@@]1(C)C(=O)[C@H](O)C3=C(C)[C@@H](OC(=O)[C@H](O)[C@@H](NC(=O)OC(C)(C)C)c4ccccc4)C[C@@](O)([C@@H](OC(=O)c4ccccc4)[C@H]21)C3(C)C [taxotere, reference compound] |  | 0.001 to 0.0016 µg/mL (≈ 1.24 to 1.98 nM) | 0.004 µg/mL (≈ 4.95 nM) | 0.25 nM | 1700 nM | 7,570 | 7,570 |
